How the values were obtained:
Experiment in all cases: greenhouse pre-emergence herbicidal test
Assay type in all cases: in vivo
Settings in all cases: 250 g/ha, scale 0 to 100
Abutilon theophrasti = system: Abutilon theophrasti
Excerpt: (§1) The culture containers used were plastic flowerpots containing loamy sand with approximately 3.0% of humus as the substrate. The seeds of the test plants were sown separately for each species. For the pre-emergence treatment, the active ingredients, which had been suspended or emulsified in water, were applied directly after sowing by means of finely distributing nozzles. The containers were irrigated gently to promote germination and growth and subsequently covered with transparent plastic hoods until the plants had rooted. This cover caused uniform germination of the test plants, unless this had been impaired by the active ingredients. […] The test period extended over 2 to 4 weeks. During this time, the plants were tended, and their response to the individual treatments was evaluated. Evaluation was carried out using a scale from 0 to 100. 100 means no emergence of the plants, or complete destruction of at least the aerial moieties, and 0 means no damage, or normal course of growth.

Setaria faberi = system: Setaria faberi
Excerpt: as §1

Echinocloa crus-galli = system: Echinocloa crus-galli
Excerpt: (§2) The culture containers used were plastic flowerpots containing loamy sand with approximately 3.0% of humus as the substrate. The seeds of the test plants were sown separately for each species.
(§3) For the pre-emergence treatment, the active ingredients, which had been suspended or emulsified in water, were applied directly after sowing by means of finely distributing nozzles. The containers were irrigated gently to promote germination and growth and subsequently covered with transparent plastic hoods until the plants had rooted. This cover caused uniform germination of the test plants, unless this had been impaired by the active ingredients.
(§4) Depending on the species, the plants were kept at 10-25° C. or 20-35° C., respectively.
(§5) The test period extended over 2 to 4 weeks. During this time, the plants were tended, and their response to the individual treatments was evaluated.
(§6) Evaluation was carried out using a scale from 0 to 100. 100 means no emergence of the plants, or complete destruction of at least the aerial moieties, and 0 means no damage, or normal course of growth. A moderate herbicidal activity is given at values of at least 60, a good herbicidal activity is given at values of at least 70, and a very good herbicidal activity is given at values of at least 85.

Alopercurus myosuroides = system: Alopercurus myosuroides
Excerpt: as §2, §3, §4, §5, §6

Amaranthus retroflexus = system: Amaranthus retroflexus
Excerpt: as §2, §3, §4, §5, §6

Cc1cccc(COc2cccc(F)c2Nc2nc(N)nc(C(C)(C)F)n2)c1 [Example 26] gave a herbicidal activity (Abutilon theophrasti) of 85%, a herbicidal activity (Setaria faberi) of 70% and a herbicidal activity (Echinocloa crus-galli) of 80%.

CC(C)(F)c1nc(N)nc(Nc2c(F)cccc2OCc2ccccc2F)n1 [Example 27] was tested, and the herbicidal activity (Abutilon theophrasti) was 100%, the herbicidal activity (Setaria faberi) was 100% and the herbicidal activity (Echinocloa crus-galli) was 100%.

CC(C)(F)c1nc(N)nc(Nc2c(F)cccc2OCc2cccc(Br)c2)n1 [Example 44] showed a herbicidal activity (Abutilon theophrasti) of 70% and a herbicidal activity (Setaria faberi) of 70%.

CCCC(F)c1nc(N)nc(Nc2c(F)cccc2OCc2ccccc2)n1 (stereo not shown) [Example 77] was tested, and the herbicidal activity (Abutilon theophrasti) was 80%, the herbicidal activity (Setaria faberi) was 100% and the herbicidal activity (Echinocloa crus-galli) was 100%.

In the case of Cc1c(F)cccc1COc1cccc(F)c1Nc1nc(N)nc(C(C)(C)F)n1 [Example 102], the herbicidal activity (Abutilon theophrasti) is reported as 85%, the herbicidal activity (Setaria faberi) is reported as 100% and the herbicidal activity (Echinocloa crus-galli) is reported as 100%.

CC(C)(F)c1nc(N)nc(Nc2c(OCc3ccccc3)ccc(F)c2F)n1 [Example 108] gave a herbicidal activity (Setaria faberi) of 100%, a herbicidal activity (Alopercurus myosuroides) of 100% and a herbicidal activity (Echinocloa crus-galli) of 100%. It also gave a herbicidal activity (Amaranthus retroflexus) of 100%.

CC(C)(F)c1nc(N)nc(Nc2c(F)cccc2OC(F)(F)c2cccc(F)c2)n1 [Example 130] showed a herbicidal activity (Abutilon theophrasti) of 100%, a herbicidal activity (Setaria faberi) of 100% and a herbicidal activity (Echinocloa crus-galli) of 100%.

For Cc1ccc(COc2c(F)ccc(F)c2Nc2nc(N)nc(C(C)(C)F)n2)cc1 [Example 141], the herbicidal activity (Abutilon theophrasti) was 98%, the herbicidal activity (Setaria faberi) was 100% and the herbicidal activity (Echinocloa crus-galli) was 100%.

In the case of CC(C)(F)c1nc(N)nc(Nc2c(F)ccc(F)c2OCc2ccccc2F)n1 [Example 172], the herbicidal activity (Abutilon theophrasti) is reported as 100%, the herbicidal activity (Setaria faberi) is reported as 100% and the herbicidal activity (Echinocloa crus-galli) is reported as 100%.

Cc1ccc(F)c(Nc2nc(N)nc(C(C)(C)F)n2)c1OCc1ccccc1 [Example 175] showed a herbicidal activity (Abutilon theophrasti) of 85%, a herbicidal activity (Setaria faberi) of 95% and a herbicidal activity (Echinocloa crus-galli) of 100%.

Cc1ccc(COc2c(F)cc(F)c(F)c2Nc2nc(N)nc(C(C)(C)F)n2)cc1 [Example 183] gave a herbicidal activity (Abutilon theophrasti) of 100%, a herbicidal activity (Setaria faberi) of 100% and a herbicidal activity (Echinocloa crus-galli) of 100%.

For COc1ccccc1COc1ccc(F)c(F)c1Nc1nc(N)nc(C(C)(C)F)n1 [Example 198], the herbicidal activity (Abutilon theophrasti) was 98%, the herbicidal activity (Setaria faberi) was 100% and the herbicidal activity (Echinocloa crus-galli) was 100%.

For CC(C)(C)c1nc(N)nc(Nc2c(F)c(F)cc(F)c2OCc2ccccc2)n1 [Example 200], the herbicidal activity (Abutilon theophrasti) was 100%, the herbicidal activity (Setaria faberi) was 100% and the herbicidal activity (Echinocloa crus-galli) was 100%.

With Nc1nc(Nc2c(F)cccc2OCc2ccccc2)nc(C(F)C2CCCC2)n1 (stereo not shown) [Example 202] the herbicidal activity (Abutilon theophrasti) was 80%, the herbicidal activity (Setaria faberi) was 85% and the herbicidal activity (Echinocloa crus-galli) was 80%.

CC(C)(F)c1nc(N)nc(Nc2c(F)c(F)cc(F)c2OCc2ccc(Cl)cc2)n1 [Example 207] showed a herbicidal activity (Abutilon theophrasti) of 90%, a herbicidal activity (Setaria faberi) of 100% and a herbicidal activity (Echinocloa crus-galli) of 100%.

In the case of CC(C)(F)c1nc(N)nc(Nc2c(F)c(F)cc(F)c2OCc2cccc(Cl)c2)n1 [Example 217], the herbicidal activity (Abutilon theophrasti) is reported as 98%, the herbicidal activity (Setaria faberi) is reported as 100% and the herbicidal activity (Echinocloa crus-galli) is reported as 100%.

COCc1cccc(COc2c(F)cc(F)c(F)c2Nc2nc(N)nc(C(C)(C)F)n2)c1 [Example 219] was tested, and the herbicidal activity (Abutilon theophrasti) was 100%, the herbicidal activity (Setaria faberi) was 100% and the herbicidal activity (Echinocloa crus-galli) was 85%.

CC(C)(F)c1nc(N)nc(Nc2c(F)c(F)cc(Br)c2OCc2ccccc2)n1 [Example 222] showed a herbicidal activity (Abutilon theophrasti) of 98%, a herbicidal activity (Setaria faberi) of 100% and a herbicidal activity (Echinocloa crus-galli) of 100%.

For CC(C)(F)c1nc(N)nc(Nc2c(F)ccc(Br)c2OCc2ccccc2)n1 [Example 223], the herbicidal activity (Abutilon theophrasti) was 100%, the herbicidal activity (Setaria faberi) was 100% and the herbicidal activity (Echinocloa crus-galli) was 95%.

Work on COCc1ccccc1COc1c(F)cc(F)c(F)c1Nc1nc(N)nc(C(C)(C)F)n1 [Example 224] yielded a herbicidal activity (Abutilon theophrasti) of 100%, a herbicidal activity (Setaria faberi) of 100% and a herbicidal activity (Echinocloa crus-galli) of 90%.

In the case of CC(C)(F)c1nc(N)nc(Nc2c(F)cccc2OCc2ccccc2)n1 [Example 257], the herbicidal activity (Abutilon theophrasti) is reported as 100%.

Source: US11992012B2, “Diaminotriazine compounds” (BASF SE, priority 2018, dated 2024)
